# Data reported in patent publication US20210386779A1, “COMPOSITIONS AND METHODS FOR DIETARY ENHANCEMENT OF IMMUNE SYSTEM FUNCTION” (priority 2020, published 2021).
# Tests used:
# [1] = Supplement-specific monitoring for side effects and toxicity over the study period; parameters: species or system human; details: in vivo, po
# Text: Monitoring tor such side effects is expected to continue over and beyond the period of quina bark extract administration.
# It appears to be appropriate to continue monitoring for oncological side effects over and beyond the period of quercetin administration.
# [2] = target: SARS-CoV-2 viral S-spike binding to cells (UniProt P0DTC2+Q9BYF1); details: supercomputer docking; cited from earlier work
# [3] = test system: COVID-19 and other flu-like illnesses (SARS-CoV-2); assay: 20-week clinical study: test group taking the core formulations monitored for symptoms of flu-like illness, with focus on COVID-19; type: in vivo, human; details: for prophylactic efficacy against COVID-19 and other flu-like illnesses (conclusion in words): 20-week study; for symptomatic control group subjects (of 12) who had maintained supplementation with this component alone, without other core formulation components: 20 weeks, vitamin C 500-1000 mg daily, vitamin D3 1000-2000 IU daily
# Text: From late February/early March 2020, we recommended to patients seen in-office (and to numerous telemedicine patients) and to our staff members to follow a regimen of at least the core formulations. Of in-office patients and staff, 54 subjects started with the study's voluntary OTC regimen and, thereby, constituted the study test group (reduced to 53 subjects after the second study week by a voluntary withdrawal); while 60 declined the regimen—for reasons, when given, involving implementation's complexity and/or effort; and/or indicating barriers to implementation stemming from educational and/or socio-economic background—and constituted the study control group.
# Over the study period, we monitored subjects for symptoms of flu-like illness, with an active focus on COVID-19. At the outset of the pandemic, our practice's access to COVID-19 testing was quite limited. At that point, we identified subjects as confirmed COVID-19 cases or, at least, as likely COVID-19 cases upon their earliest presentation of clinical symptoms of COVID-19; or upon their being test-confirmed as COVID cases as documented in locales and practices where testing was available. Asymptomatic/pre-symptomatic subjects—with special note taken of documented, self-reported or likely exposure to diagnosed or suspected COVID-19 cases—as well as subjects presenting symptoms of unspecified flu-like illnesses, were followed for subsequent development of COVID-19 symptoms. As testing became more available, the state/regional protocols were such that we would receive notification of individual ones among our subjects having tested positive, the testing generally conducted by a subject's primary care provider, and the notifications then sent by Ohio health agencies to all the infected patient's physicians.
# One dose daily of the full core formulation regimen, as per Table 2.
# Over the study period of 20+ weeks, we monitored 113 subjects (104 in-office patients and 9 staff members) for clinical symptoms of flu-like illnesses, with subsequent differential diagnosis (and, when available, with test-confirmation) of each symptomatic subject to distinguish COVID-19 from non-COVID-19 flu-like illness. We also maintained data of reported and/or observed subject exposures to clinical and/or test-confirmed cases of COVID-19.
# The OTC regimen undertaken by test group subjects included the core formulations of zinc, zinc ionophores, vitamins and l-lysine, as well as at least some of the methods. […]
SMILES,"complications, side effects or toxicity observed over the study period [1]",rank for inhibition of SARS-CoV-2 viral S-spike binding to cells among FDA-approved compounds [2],prophylactic efficacy against COVID-19 and other flu-like illnesses (conclusion in words) [3],"symptomatic control group subjects (of 12) who had maintained supplementation with this component alone, without other core formulation components [3]"
O=c1c(O)c(-c2ccc(O)c(O)c2)oc2cc(O)cc(O)c12 [quercetin],received no reports nor found any clinical signs of quercetin toxicity,fifth out of twenty top performers,–,–
C=C1CC[C@H](O)C/C1=C/C=C1\CCC[C@]2(C)[C@@H]([C@H](C)CCCC(C)C)CC[C@@H]12 [vitamin D3],–,–,relative lack of anti-flu/anti-COVID-19 prophylactic efficacy,at least three
O=C1O[C@H]([C@@H](O)CO)C(O)=C1O [vitamin C],–,–,relative lack of anti-flu/anti-COVID-19 prophylactic efficacy,at least four
